We go through 9 molecules from US4487776A, “Azolyl-phenoxy-tetrahydrofuran-2-ylidene-methanes, a process for their preparation, and antimicrobial agents which contain these substances” (Bayer Aktiengesellschaft, priority 1982, dated 1984).

In one test the test system is Trichophyton mentagr. As to the kind of experiment: Antimycotic in vitro activity, series dilution test (MIC). It counts as cell-based, Trichophyton mentagrophytes. As to conditions: 5×10^4 germs/ml, Sabouraud's milieu d'épreuve, 20° C., 96 hours, read-out: MIC values in γ/ml of nutrient medium, Trichophyton mentagr. Here is the method: (§1) Antimycotic in vitro activity Description of the experiment: The in vitro tests were carried out in a series dilution test with germ inocula of an average of 5×10^4 germs/ml of substrate. The nutrient medium was (a) for dermatophytes and moulds: Sabouraud's milieu d'/e/ preuve and The incubation temperature was 20° C. and the duration of incubation was 24 to 96 hours, in the case of yeasts, and 96 hours in the case of dermatophytes and moulds.

In another test the test system is Microsporum canis. The test is described as above. It counts as cell-based. As to conditions: 5×10^4 germs/ml, Sabouraud's milieu d'épreuve, 20° C., 96 hours, read-out: MIC values in γ/ml of nutrient medium, Microsporum canis. On the procedure:
as §1

The subject of the next test is Aspergillus fumig. The description is as above. It counts as cell-based, Aspergillus fumigatus. The conditions noted are these: 5×10^4 germs/ml, Sabouraud's milieu d'épreuve, 20° C., 96 hours, read-out: MIC values in γ/ml of nutrient medium, Aspergillus fumig. Here is the method: as §1
A further test deals with Torulopsis glabrata. The test is described as above. It counts as cell-based. As to conditions: Nakaseomyces glabratus, 5×10^4 germs/ml, meat extract/glucose broth, 20° C., 24 to 96 hours, read-out: MIC values in γ/ml of nutrient medium, Torulopsis glabrata. Here is the method: (§2) Antimycotic in vitro activity Description of the experiment: The in vitro tests were carried out in a series dilution test with germ inocula of an average of 5×10^4 germs/ml of substrate. The nutrient medium was (b) for yeasts: meat extract/glucose broth. The incubation temperature was 20° C. and the duration of incubation was 24 to 96 hours, in the case of yeasts, and 96 hours in the case of dermatophytes and moulds.

The next test relates to Candida albicans. The test is described as above. It counts as cell-based. The conditions noted are these: 5×10^4 germs/ml, meat extract/glucose broth, 20° C., 24 to 96 hours, read-out: MIC values in γ/ml of nutrient medium, Candida albicans. Here is the method:
as §2

Test [1] deals with dermatophytes and moulds, yeasts. In words: Antimycotic in vitro activity, overall comparison with known compounds. It counts as cell-based. The conditions noted are these: in vitro series dilution test. Here is the method: Antimycotic in vitro activity
Description of the experiment:
The in vitro tests were carried out in a series dilution test with germ inocula of an average of 5×10^4 germs/ml of substrate. The nutrient medium was
(a) for dermatophytes and moulds:
Sabouraud's milieu d'/e/ preuve and
meat extract/glucose broth.
The incubation temperature was 20° C. and the duration of incubation was 24 to 96 hours, in the case of yeasts, and 96 hours in the case of dermatophytes and moulds.

≈ marks a conversion by molar mass, not a printed value. A value given as a limit tells only on which side of the number the result lay.

Take `CC(C)(C)C(O)C(=Cn1ccnc1)Oc1ccc(F)cc1` (centres unmarked) [(A), reference compound]: the MIC in the test on Trichophyton mentagr. is 1 µg/mL (≈ 3.44 µM); in the test with Microsporum canis, 64 µg/mL (≈ 220 µM); in the test on Aspergillus fumig., over 64 µg/mL; with Torulopsis glabrata, 64 µg/mL (≈ 220 µM); in the test with Candida albicans, 32 µg/mL (≈ 110 µM).

With `CC(C)(C)C(O)C(=Cn1ccnc1)Oc1ccc(-c2ccccc2)cc1` (centres unmarked) [(B), reference compound], the MIC was under 1 µg/mL in the test on Trichophyton mentagr.; 32 µg/mL (≈ 91.8 µM) in the test with Microsporum canis; over 64 µg/mL in the test on Aspergillus fumig.; over 64 µg/mL in the test on Torulopsis glabrata; 32 µg/mL (≈ 91.8 µM) in the test with Candida albicans.

For the molecule `CC(C)(C)C(O)C(=Cn1ccnc1)Oc1ccc(Cl)cc1Cl` (centres unmarked) [(C), reference compound], the MIC in the test on Trichophyton mentagr. is under 1 µg/mL; with Microsporum canis, 32 µg/mL (≈ 93.8 µM); in the test on Aspergillus fumig. it was over 64 µg/mL; in the test with Torulopsis glabrata, 16 µg/mL (≈ 46.9 µM); in the test on Candida albicans, 16 µg/mL (≈ 46.9 µM).

`CC(C)(C)C(O)C(=Cn1cncn1)Oc1ccc(Cl)cc1Cl` (centres unmarked) [(D), reference compound]: the MIC in the test on Trichophyton mentagr. is under 1 µg/mL; in the test on Microsporum canis it was 64 µg/mL (≈ 187 µM); in the test on Aspergillus fumig., 64 µg/mL (≈ 187 µM); in the test with Torulopsis glabrata it was 32 µg/mL (≈ 93.5 µM); in the test on Candida albicans, 32 µg/mL (≈ 93.5 µM).

`CC1(C)CCOC1=C(Oc1ccc(Cl)cc1)n1ccnc1` [Example 1, (4-chlorophenoxy)-(imidazol-1-yl)-3,3-dimethyltetrahydrofuran-2-ylidene-methane]: the “antimycotic action compared with compounds (A), (B), (C) and (D)” value in test [1] was “better antimycotic action”. The MIC with Trichophyton mentagr. is under 1 µg/mL; in the test on Microsporum canis, under 1 µg/mL; in the test on Aspergillus fumig. it was under 1 µg/mL; with Torulopsis glabrata, 2 µg/mL (≈ 6.56 µM); in the test with Candida albicans, 8 µg/mL (≈ 26.2 µM).

Consider `CC1(C)CCOC1=C(Oc1ccc(F)cc1)n1ccnc1` [Example 2], for which the “antimycotic action compared with compounds (A), (B), (C) and (D)” value in test [1] is listed as “better antimycotic action”. Besides, the MIC was under 1 µg/mL in the test with Trichophyton mentagr.; under 1 µg/mL in the test with Microsporum canis; 2 µg/mL (≈ 6.94 µM) in the test on Aspergillus fumig.; 2 µg/mL (≈ 6.94 µM) in the test on Torulopsis glabrata; under 1 µg/mL in the test with Candida albicans.

With `CC1(C)CCOC1=C(Oc1ccc(Cl)cc1Cl)n1ccnc1` [Example 3], the “antimycotic action compared with compounds (A), (B), (C) and (D)” value in test [1] is “better antimycotic action”. Also, the MIC with Trichophyton mentagr., with Microsporum canis, in the test with Aspergillus fumig., in the test with Torulopsis glabrata and in the test on Candida albicans was under 1 µg/mL in each case.

For `CC1(C)CCOC1=C(Oc1ccc(-c2ccccc2)cc1)n1ccnc1` [Example 7], the “antimycotic action compared with compounds (A), (B), (C) and (D)” value in test [1] is listed as “better antimycotic action”. Besides, the MIC with Trichophyton mentagr., in the test with Microsporum canis, in the test with Aspergillus fumig., in the test with Torulopsis glabrata and with Candida albicans was under 1 µg/mL in each case.

In the case of `CC1(C)CCOC1=C(Oc1ccc(Cl)cc1)n1cncn1` [Example 11], the “antimycotic action compared with compounds (A), (B), (C) and (D)” value in test [1] is “better antimycotic action”. In addition, the MIC was under 1 µg/mL in the test on Trichophyton mentagr.; 16 µg/mL (≈ 52.3 µM) in the test with Microsporum canis; over 64 µg/mL in the test on Aspergillus fumig.; 16 µg/mL (≈ 52.3 µM) in the test on Torulopsis glabrata; 4 µg/mL (≈ 13.1 µM) in the test with Candida albicans.
